# Reference: patent US20130273557A1 (priority 2010, published 2013)
# Entries after “also recorded” stand apart in the source; their conditions may differ.
# Key:
# [1] = target: T1, intermediate- and large-conductance channel activity of PSI-mitochondria (Rattus norvegicus, UniProt P19511+Q06647); assay: Patch clamp recording of brain-derived PSI-mitochondria; type: biochemical
# T1 sequence (P19511 43-256): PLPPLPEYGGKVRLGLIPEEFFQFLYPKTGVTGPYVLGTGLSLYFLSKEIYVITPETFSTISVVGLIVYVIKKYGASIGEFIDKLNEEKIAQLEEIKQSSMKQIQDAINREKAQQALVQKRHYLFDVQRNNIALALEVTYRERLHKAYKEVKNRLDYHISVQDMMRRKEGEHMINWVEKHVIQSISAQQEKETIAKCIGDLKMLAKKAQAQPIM
# T1 sequence (Q06647 24-213): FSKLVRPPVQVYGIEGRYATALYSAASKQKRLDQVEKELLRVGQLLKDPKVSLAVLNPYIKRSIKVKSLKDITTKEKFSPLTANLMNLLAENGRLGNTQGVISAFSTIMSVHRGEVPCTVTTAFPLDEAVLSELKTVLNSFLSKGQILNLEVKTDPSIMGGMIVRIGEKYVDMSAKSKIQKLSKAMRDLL
# Description: Isolation of Brain-derived Mitochondria. Standard techniques were adapted for isolating brain-derived mitochondria. Mitochondria were stored in isolation buffer (IB) at −80° C. For PSI-mitochondria, male Sprague-Dawley rats (6 wo, ˜200 gm, 3-6 rats/group/condition, at least 2 different preparations/experimental paradigm) were injected with the ubiquitin proteasome inhibitor Z-Ile-Glu(OtBu)-Ala-Leu-al (PSI; Peptides International Inc, Kentucky, USA; s.c. every other day for 1 or 2 weeks; 6.0 mg/kg PSI in DMSO, or with DMSO, 200 μL/rat), and mitochondria isolated and stored as above.
# Reagents were rapidly perfused into the recording chamber.
# [2] = system: SH-SY5Y neuroblastoma cells; conditions: 1-100 μM; 24 hr
# Description: Undifferentiated SH-SY5Y human neuroblastoma cells (ATCC, Manasses, Va.) were maintained in humidified 5% CO2 in 1:1 Ham's F12 nutrient mixture with Glutamax® and Minimal Essential Medium with L-glutamine (MEM-Alpha), 10% FBS, and 1% penicillin/streptomycin (Gibco® Invitrogen Corp., Carlsbad, Calif.).
# Cellular viability was measured using CellTiter-Blue® (Promega Corp., Madison, Wis.) in black-walled optical imaging multiwell plates, and cellular ATP was measured using the CellTiter-Glo® (Promega Corp., Madison, Wis.) luminescence assay in opaque-walled multiwell plates according to the manufacturer's protocol.
# [3] = system: digitonin-treated cortical neurons; assay: ATP production following ADP pulse in digitonin-treated cortical neurons; type: cell-based, rat; conditions: dexpramipexole 30 μM
# citrate synthase = conditions: dexpramipexole 30 μM
# Description: Primary rat cortical cultures were incubated with digitonin (10 μg/ml) and rotenone (100 nM) for 45 minutes in MAS1 buffer prior to measurement of oxygen consumption rate (OCR) by a Seahorse® flux analyzer. […] Data are shown as a percentage of the control group OCR±SEM.
# C2C12 myoblasts = assay: OCR and ECAR in C2C12 myoblasts (Seahorse); type: cell-based, mouse
# Description: The C2C12 mouse myoblast cell line (ATCC, Manasses, Va.) was cultured in Dulbecco's Modified Eagle Medium (DMEM; Gibco®; Carlsbad, Calif.) supplemented with 10% fetal bovine serum (FBS), 2 mM GlutaMax® and penicillin/streptomycin. Cells were maintained in 10% CO2 humidified at 37° C.
# OCR and ECAR were measured with a Seahorse® XF24 Flux Analyzer (Seahorse Bioscience, Billerica, Mass.). For PSI experiments on C2C12 cells, basal values were assessed in non-buffered DMEM Assay Medium without glucose, glutamine or pyruvate, and supplemented with 25 mM glucose, 6 mM Glutamax®, and 1 mM sodium pyruvate. […] Succinate and ADP stocks were diluted to 10× concentrations in pre-warmed XF MAS buffer, pH 7.2. Using a Plate Prep Station (Seahorse Bioscience, Billerica, Mass.), cells were washed with 1 mL buffer and were brought to 607 μL with buffer. […] Raw basal OCR and ECAR values were normalized as a percent of the mean control value for each individual experiment. Normalized data from experiments were expressed as mean±SEM.
# complex V (F1FO ATPase) = complex V (F1FO ATPase) (Rattus norvegicus, UniProt P19511+Q06647); conditions: concentration-dependent
# Description: ATP hydrolysis was also measured using an NADH-ATP-synthase kit (Mitosciences, USA; catalog #MS541), according to the manufacturer's protocol with modifications. SMVs were added 20 min. prior to addition of the reagent mix. The rate of change in […] over time as NADH was oxidized was measured as a decrease in absorbance at 340 nm.
# [4] = target: ATP synthesis in liver mitochondria (Rattus norvegicus, UniProt P19511+Q06647)
# Description: Synthesis of ATP in liver mitochondria was measured using an ATP determination kit (A-22066; Molecular Probes, Eugene, Oreg.), supplemented with 1 mM sodium succinate and 500 nM rotenone. Assays were performed in 96-well microplates (Becton Dickinson, Franklin Lakes, N.J.) in a final volume of […] consisting of 10 μL mitochondria (0.1 mg protein/ml final concentration), 10 μL of drug or control buffer and 90 μL ATP-determination reaction mixture. After a 5 min. recording of basal luciferase-generated luminescence, ADP (final concentration, 10 μM, 10 μL) was injected into each well. Luminescence was recorded every 6 sec for 15-20 min.
# SMVs (F1FO ATP synthase) = SMVs (F1FO ATP synthase) (Rattus norvegicus, UniProt P19511+Q06647); conditions: 20 μM unlabeled dexpramipexole; non-urea treated SMVs; preliminary experiment
# [5] = target: human F1FO ATP synthase OSCP subunit (Homo sapiens, UniProt P48047); conditions: co-incubation in 'cold' dexpramipexole (100 μM)
# [6] = system: G93A-SOD1 mutant mouse model of ALS; conditions: independent laboratory; cited from earlier work
# [7] = system: human neuroblastoma SH-SY5Y cells; conditions: MPP^+ or PSI exposure; cited from earlier work
# subjects with ALS = conditions: double-blind, placebo- and low-dose-controlled 2-part Phase 2; cited from earlier work
# [8] = co-incubation of dexpramipexole 30 μM and PSI 30 nM
smiles,measurement,setting,value
"CCCN[C@@H]1CCc2nc(N)sc2C1 [dexpramipexole, (6R)-4,5,6,7-tetrahydro-N-6-propyl-2,6-benzothiazole-diamine]",Hill slope of concentration-response curve,[1]; NPO inhibition in PSI-mitochondria,< 1
same,concentration for full inhibition of aberrant currents (EC100),[1]; PSI-mitochondria,> 10 µM
same,intermediate- and large-conductance channel activity,[1]; PSI-mitochondria,the inhibition was concentration-dependent and reversible
same,peak conductance,"[1]; dexpramipexole 2 μM, CSA 1 μM, PSI-mitochondria",significantly and reversibly decreased peak conductance
same,concentrations producing complete elimination of aberrant currents (EC100),[1]; level stated in discussion,10 to 30 µM
same,maximal group increases in ATP levels relative to control,[2],~18%
same,initial slope of ATP synthesis following an ADP pulse,[3],unchanged
same,maximal ATP levels,[3],unchanged
same,levels of citrate synthase,citrate synthase,unchanged
same,ECAR,C2C12 myoblasts; [8],no increase in ECAR
same,OCR,C2C12 myoblasts; [8],significant decrease in OCR
same,OCR,"C2C12 myoblasts; dexpramipexole 30 μM or PSI 30 nM alone, 18 hr",significant decrease in OCR; also recorded: significantly decreased
same,ATP hydrolysis (change in NADH signal),complex V (F1FO ATPase),significantly enhanced ATP hydrolysis
same,Hill slope of CRC,[4],< 1
same,reduction in ^14C-dexpramipexole binding by competition,SMVs (F1FO ATP synthase),34%
same,competition of ^14C-dexpramipexole binding to OSCP subunit,[5],significantly reduced binding
same,in vivo survival,[6],significantly increased in vivo survival
same,in vitro cytoprotection,[7],significant concentration-dependent in vitro cytoprotection
same,trends in efficacy,subjects with ALS,reduction of functional decline and decreased mortality
